Measurements taken from paper PMC7179955 (Pharmaceutical research, 2016).
Converted amounts (≈) assume the structure as drawn. Counter-ions that a name gives are not always drawn. Like-named read-outs stand apart in the source and are kept apart here.

Key:
gastric pH [1] = conditions: cited from earlier work
gastric pH [2] = assay: Intra-gastric pH monitoring with the Heidelberg pH capsule; format: in vivo, human
[3] = administered with Coca-Cola (pH = 2.5) compared to water; cited from earlier work
[4] = human, in vivo
[5] = addition of 100 mg ritonavir to 300 mg atazanavir; cited from earlier work
[6] = cited from earlier work
[7] = cited from earlier work; remark: listed apart in the source
P-gp = conditions: cited from earlier work
[8] = fed state, rabeprazole pretreated

COc1ccc2[nH]c([S+]([O-])Cc3ncc(C)c(OC)c3C)nc2c1 (stereo not shown) [omeprazole]
Gastric pH around the time of atazanavir administration (gastric pH [1]; pretreatment with high-dose omeprazole): ~6

COCCCOc1ccnc(C[S+]([O-])c2nc3ccccc3[nH]2)c1C (stereo not shown) [rabeprazole]
Gastric pH around the time of atazanavir administration (gastric pH [2]; pretreatment with rabeprazole, after light meal): ~3

C[N+](C)(C)CC(=O)O [BHCl, betaine hydrochloride]
Lowest observed gastric pH (gastric pH [2]; 1500 mg BHCl after rabeprazole pretreatment, fed state, mean ± SD): 0.838 ±0.391 | Length of the reacidification period (time for gastric pH to rebound to pH >4) (gastric pH [2]; [8]): 76 ±20 minutes | Time to achieve lowest gastric pH after BHCl administration (gastric pH [2]; [8]): 67 ±33 minutes | Average onset of effect (time to achieve a pH < 3) (gastric pH [1]; pilot study, rabeprazole-pretreated healthy volunteers): ~5 minutes

CC[C@@H]([C@H](C)O)n1ncn(-c2ccc(N3CCN(c4ccc(OC[C@@H]5CO[C@@](Cn6cncn6)(c6ccc(F)cc6F)C5)cc4)CC3)cc2)c1=O [posaconazole]
Increase in systemic exposure [3]: > 70%

CC(C)c1nc(CN(C)C(=O)N[C@H](C(=O)N[C@@H](Cc2ccccc2)C[C@H](O)[C@H](Cc2ccccc2)NC(=O)OCc2cncs2)C(C)C)cs1 [Ritonavir]
AUClast lost due to rabeprazole that was restored by addition of BHCl [4]: 13% | Cmax lost due to rabeprazole that was restored by addition of BHCl [4]: 12%

COC(=O)N[C@H](C(=O)N[C@@H](Cc1ccccc1)[C@@H](O)CN(Cc1ccc(-c2ccccn2)cc1)NC(=O)[C@@H](NC(=O)OC)C(C)(C)C)C(C)(C)C [Atazanavir]
AUClast lost due to rabeprazole that was restored by addition of BHCl [4]: 12% | Differences in Tmax across treatments [4]: No significant differences | Individual decrease in AUClast and Cmax after rabeprazole pretreatment [4]: 11-48% | Mean exposure lost due to rabeprazole that was restored by addition of BHCl [4]: 12-13% | Mean plasma concentration in Treatment C compared with Treatment B ([4]; 1.5 h): 3.4 times | Increase in atazanavir AUC [5]: 238% | Increase in atazanavir Cmax [5]: 86% | Reductions in boosted atazanavir exposures ([6]; omeprazole 20 mg once daily): 39-46% | Exposure reductions ([6]; ritonavir-boosted atazanavir with omeprazole 40 mg once daily, light meal): 72-76% | Solubility ([7]; pH 2): 5200 µg/mL (≈ 7.38 mM) | Solubility ([7]; pH 4): < 5 µg/mL | Inhibitory effect of a known P-gp inhibitor on atazanavir efflux (P-gp; pH 5.5): 78% | Inhibitory effect of a known P-gp inhibitor on atazanavir efflux (P-gp; pH 7.4): 245%
